In PMC8238520, “Co-ordinated control of the Aurora B abscission checkpoint by PKCε complex assembly, midbody recruitment and retention” (Biochemical Journal, 2021):

Tests used:
Format in all cases: cell-based
[1] = system: GFP-PKCε-L223A-K224A-E227A in HEK293T cells; test: Midbody recruitment of GFP-PKCε-L223A-K224A-E227A (LKE > 3A), immunofluorescence; conditions: twenty cells with midbodies per condition across three experiments
Description: (§1) Cells were grown on 13 mm glass coverslips and simultaneously fixed and permeabilized with PHEM-TX buffer (60 mM PIPES (pH 6.8), 25 mM HEPES (pH7.4), 10 mM EGTA (pH 8), 4 mM MgSO4, 4% paraformaldehyde and 0.1% Triton X-100) for 20 min. Cells were then incubated in blocking buffer (3% BSA in PBS) and probed using the following primary antibodies: rabbit Aurora B pS227 (in house, 1 : 100), mouse α-tubulin (in house, 1 : 1000). Primary antibodies were detected using Alexa Fluor-conjugated secondary antibodies (Life Technologies) and were all used diluted in blocking buffer: donkey anti-rabbit Alexa Fluor 647 and goat anti-mouse Alexa Fluor 555. All coverslips were mounted using ProLong Gold Diamond with DAPI (Invitrogen). All the static images were acquired using an inverted laser scanning confocal microscope (Carl Zeiss LSM 780) equipped with a 40× Plan-APOCHROMAT DIC oil-immersion objective. Image analysis was carried out using the ZEN analysis software. The variation in expression precluded midbody/cytoplasmic ratio determination as a valid approach to scoring localisation. […]
Figure 3. […] (C) Quantitation of dividing cells with GFP-PKCε, GFP-PKCε-D532N, GFP-PKCε-D532N-L223A-K224A-E227A, GFP-PKCε-D532N-T228A or GFP-PKCε-D532N-S234A accumulation at the midbody. […]

[2] = system: GFP-PKCε-C183A in HEK293T cells; test: Midbody recruitment of GFP-PKCε-C183A (C1A mutant), immunofluorescence; conditions: twenty cells with midbodies per condition across three experiments
Description: (§2) Cells were grown on 13 mm glass coverslips and simultaneously fixed and permeabilized with PHEM-TX buffer (60 mM PIPES (pH 6.8), 25 mM HEPES (pH7.4), 10 mM EGTA (pH 8), 4 mM MgSO4, 4% paraformaldehyde and 0.1% Triton X-100) for 20 min. Cells were then incubated in blocking buffer (3% BSA in PBS) and probed using the following primary antibodies: rabbit Aurora B pS227 (in house, 1 : 100), mouse α-tubulin (in house, 1 : 1000). Primary antibodies were detected using Alexa Fluor-conjugated secondary antibodies (Life Technologies) and were all used diluted in blocking buffer: donkey anti-rabbit Alexa Fluor 647 and goat anti-mouse Alexa Fluor 555. […]
(§3) Figure 2. […] (B) Quantitation of dividing cells with GFP-PKCε and GFP-PKCε-D532N accumulation at the midbody. […] (D) Quantitation of dividing cells with GFP-PKCε, GFP-PKCε-S346A-S368A, GFP-PKCε-D532N or GFP-PKCε-D532N-S346A-S368A accumulation at the midbody. […] (F) Quantitation of dividing cells with GFP-PKCε-D532N, GFP-PKCε-D532N-C183A, GFP-PKCε-D532N-C259A or GFP-PKCε-D532N-ΔC2 accumulation at the midbody. […] (G) Quantitation of multinucleate cells upon treatment with non-targeting siRNA (control) or PKCε siRNA, with expression of siRNA-resistant mouse GFP-PKCε, GFP-PKCε-D532N, GFP-PKCε-C183A, GFP-PKCε-C259A or GFP-PKCε-ΔC2. […] Two-hundred cells were counted per condition per experiment. […]

[3] = system: GFP-PKCε-C259A in HEK293T cells; test: Midbody recruitment of GFP-PKCε-C259A (C1B mutant), immunofluorescence; conditions: twenty cells with midbodies per condition across three experiments
Description: as §2, §3

[4] = system: GFP-PKCε-ΔC2 in HEK293T cells; test: Midbody recruitment of GFP-PKCε-ΔC2, immunofluorescence
Description: as §1
(§4) I = I0 –I 1e-t/T1 –I 2e-t/T2 (see Methods), for GFP-PKC e M486A expressing HEK293T cells pretreated with NaPP1. Cells were bleached atthe plasma membrane (PM) or midbody(MB)and fluorescence recovery was monitored. […]

[5] = system: GFP-PKCε (WT) in HEK293T cells; test: Midbody recruitment of GFP-PKCε (WT), immunofluorescence; conditions: cells undergoing cytokinesis, twenty cells with midbodies per condition across three experiments
Description: as §2, §3

[6] = system: GFP-PKCε M486A in HEK293T cells; test: Fluorescence recovery after photobleaching (FRAP); conditions: NaPP1 (4 μM) for 10 min; 37°C
Description: Live-cell fluorescence recovery after photobleaching (FRAP) experiments were performed using an inverted laser scanning confocal microscope (LSM 510, Carl Zeiss MicroImaging GmbH, Jena, Germany), with fully open pinhole, using a Plan-Apochromat oil-immersion objective (×63, NA 1.4). The microscope was encased inside an environmental polymethylmethacrylate case maintained at a constant temperature of 37°C, while the dishes containing the cells were maintained under a constant 5% CO2 flow. GFP-PKCε M486A cells were incubated with NaPP1 (4 μM) for 10 min. Each FRAP experiment comprised a sequence of 300 frames (128 × 128, pixel dwell time of 6.40 μs, pixel size 0.37 μm) including 10 pre-bleached frames. […] Recovery was monitored by capturing a further 290 scans after the photobleach event. Quantification was performed using the FRAP module included in the LSM software (Carl Zeiss) plotting the graphs to a best fit double exponential model I = I0 − I1e^−t/T^1 − I2e^−t/T^2 where I0 is the intensity before bleach, I1 and I2 are the mobile fractions and T1 and T2 the time constants. […]
as §4

SMILES: CCCCCCCCCC(=O)OC[C@H](CO)OC(=O)CCCCCCCCC [DiC10, sn-1,2-didecanoylglycerol]
- midbody recruitment of LKE > 3A mutant on diC10 ([1]; 10 µM diC10, 3 min): recruited to the midbody
- cells displaying recruitment of C1A mutant to midbody on diC10 ([2]; 10 µM diC10, 3 min): 0%
- cells displaying recruitment of C1B mutant to midbody on diC10 ([3]; 10 µM diC10, 3 min): 0%
- midbody recruitment of PKCεΔC2 on diC10 ([4]; DiC10, data not shown): recruited
- midbody recruitment of WT PKCε on diC10 ([5]; 10 µM diC10, 3 min): recruited to the midbody region

SMILES: CC(C)(C)n1nc(-c2cccc3ccccc23)c2c(N)ncnc21 [NaPP1]
- fast component of FRAP recovery at the midbody compared with the plasma membrane recruited protein [6]: considerably slower

SMILES: CCCCCCCCCCCCCC(=O)O[C@@H]1[C@@H](C)[C@@]2(O)[C@@H](C=C(CO)C[C@]3(O)C(=O)C(C)=C[C@@H]23)[C@@H]2C(C)(C)[C@]12OC(C)=O [PMA, phorbol myristate acetate]
- midbody recruitment of LKE > 3A mutant on PMA ([1]; 1 µM PMA, 20 min): recruited to the midbody
- midbody accumulation of C1A mutant (C183A) on PMA ([2]; 1 µM PMA, 20 min): still promoted midbody accumulation
- midbody recruitment of C1B mutant (C259A) on PMA ([3]; 1 µM PMA, 20 min): not recruited
- midbody recruitment of PKCεΔC2 on PMA ([4]; PMA for 20 minutes, 20 cells per condition across 3 experiments): recruited
- midbody recruitment of WT PKCε on PMA ([5]; 1 µM PMA, 20 min): recruited to the midbody region
